No end group written: not given here.
Key:
rat aortic rings = conditions: for effect on calcium content / calcification of rat aortic rings: peptide fragment 100 nmol L^−1, 7 days
[1] = system: human aortic smooth muscle cells (hAoSMCs); test: Calcification of cultivated human aortic smooth muscle cells in calcifying medium (Ca2+ content); type: cell-based; conditions: for effect on calcium content / calcification of hAoSMCs: peptide fragment 100 nmol L^−1, 7 days
Description: Cell culture and calcification induction in human aortic smooth muscle cells: Human aortic smooth muscle cells (hAoSMCs) (Promocell, Heidelberg, Germany) were cultivated in smooth muscle cell medium (Promocell, Heidelberg, Germany). The hAoSMCs were seeded in 48 well plates (5×10^3 cells/well) at 80% confluence. Dulbecco's modified Eagle's medium (DMEM) containing 25 mmol L^−1 glucose supplemented with 2.5% fetal calf serum and 2.8 mmol L^−1 phosphate were used to induce calcification (calcifying medium, CM). The calcifying medium was supplemented with CBF (max. concentration 100 pmol L^−1) or CBF fragments (100 nmol L^−1). As reference medium, DMEM containing 25 mmol L^−1 glucose supplemented with 2.5% fetal calf serum and 0.9 mmol L^−1 phosphate were used (non-calcifying medium, NCM). The hAoSMCs were incubated for 7 days while the incubation medium was replaced after 48 h.
Measurement of calcium content: For determination of calcium content, cells or aortic rings were washed 3 times with PBS without calcium. Aortic rings were dried and weighed. Dried aortic rings and cells were decalcified with 0.1 M HCl for 24 h, and the calcium content in the supernatant was determined by the o-cresolphthalein complexone method (Clinical Chemistry Assay Kit/Calcium, County Antrim, UK) according to the manufacturer's protocol. Cell content was extracted in 0.1 M NaOH 0.1% sodium dodecyl sulfate (SDS), and protein content was measured by the bicinchoninic acid (BCA) protein assay method (Thermo Fisher Scientific, Germany). The calcium content was normalized to total protein for cells or dry weight for aortic rings.

VDN rats = test: VDN (vitamin D3 plus nicotine) rat model of elastocalcinosis: aortic calcium, von Kossa staining, pulse pressure; type: in vivo; conditions: for calcified surface of the aortas, Von Kossa staining (Example 3 peptide comparison) / calcium content of the aortas (Example 3 peptide comparison) / pulse pressure (Example 3 peptide comparison): VDN animals, versus control animals; for calcified surface of the aortas, Von Kossa staining (Example 3 peptide comparison): FIG. 5b; for calcium content of the aortas (Example 3 peptide comparison): FIG. 5c; for pulse pressure (Example 3 peptide comparison): FIG. 5a
Description: Ex vivo and calcification of rat aortic rings: The thoracic aorta of 8-13 weeks old male Wistar-rats were gently dissected and were cut in 3-4 mm segments. The endothelial layer of the aortic ring was manually damaged by scratching using a conventional pipette tip. The aortic rings were incubated with DMEM containing 25 mmol L^−1 glucose supplemented with 2.5% fetal calf serum and 2.8 mmol L^−1 phosphate to induce calcification. The calcification medium was supplemented with CBF (max. concentration 1 μmol L^−1) or CBF fragments (100 nmol L^−1). As reference medium, DMEM containing 25 mmol L^−1 glucose supplemented with 2.5% fetal calf serum and 0.9 mmol L^−1 phosphate were used (non-calcifying medium, NCM). The aortic rings were incubated for 7 days while the medium was replaced after 48 h. Effect of CBF in an animal model with enhanced arterial calcification: An animal model of elastocalcinosis with proven increased arterial calcification (Niederhoffer et al., “Aortic calcification produced by vitmin D3 plus nicotine”, J. Vasc. Res. 34, 386-98, 1997) was chosen to assay the effects of CBF in vivo. Animal experiments were approved by the regional ethics committee “Comité d'éthique pour I'expérimentation animale Languedoc Roussillon N°36”, with the agreement number APAFIS 2018072715539434#17270v4, and conformed to the Guide for the Care and Use of Laboratory Animals, NIH (National Academies Press US, 8th edition, 2011). Three groups of 6 weeks old Wistar rats (Charles River Laboratories, L'Arbresle, France) were given a regular rat chow (A04, Safe, Villemoisson-sur-Orge, France) and spring water (Mont Roucous®, France; calcium 60 μM) ad libitum for one week before experiments. Two groups received CBF (31 μg kg^−1 per day) or its vehicle (saline) infused through an osmotic pump (Alzet 2004, Charles River, France) implanted under the skin. CBF treatment was initiated 3 or 4 days before induction of elastocalcinosis (vitamin D3 plus nicotine, or VDN rats) with a single injection of vitamin D3 (300,000 IU kg^−1, i.m.) and two gavages of nicotine (25 mg kg^−1, 5 ml kg^−1) on the same day, as previously described ^47.
Untreated rats served as control rats (sham operation and saline administration). Four weeks later, rats were anaesthetized (ketamine-xylazine), and a catheter was inserted into the right carotid artery for blood pressure measurement. After 10-15 min of equilibration, systolic, diastolic, mean arterial, and pulse (systolic-diastolic) pressures were determined. The aorta was gently dissected, adventitial fat removed, and cut into segments (3-4 mm) for further analysis.
Histological calcification staining and immunofluorescence staining: Aortic rings were placed in 1 ml of 4% formaldehyde for 1 h to prepare for histological and immunohistochemical staining. The rings were dehydrated and embedded in paraffin and 5 μm slices were prepared by a microtome (Leica RM 2250, Wetzlar, Germany). The slices were placed on a glass slide, deparaffinized in xylene, and dehydrated in decreasingly concentrated sopropanol solutions before staining. Von Kossa staining was performed to visualize calcified areas of the aortic rings. The aortic ring slides were incubated with 5% silver nitrate in the presence of UV light at 405 nm for 1 h, washed three times with double-distilled water (ddH2O), incubated in the presence of 5% sodium thiosulfate in water for 1 min, and washed three times with ddH2O. Next, nuclear fast red (Merck; Darmstadt, Germany) was added to the slides for 5 min. The slides were then rinsed, dehydrated with ethanol, incubated for 5 min in xylol, and covered with Vitro-Clud (R. Langenbrinck; Emmendingen, Germany). For immunohistochemical analyses, sections were blocked with blocking solution (1% bovine serum albumin (BSA)) for 30 min at room temperature. […]

Substance	effect on calcium content / calcification of rat aortic rings (rat aortic rings; calcifying medium)	effect on calcium content / calcification of hAoSMCs [1]	other results
LEGQ (listed as Homo sapiens) [CBF 01-04, amino acids 1-4 of CBF]	inhibitory effect on vascular calcification	inhibitory effect on vascular calcification	
EEED (listed as Homo sapiens) [CBF 06-09, amino acids 6-9 of CBF]	strongest inhibition	strongest inhibition	
EGQE (listed as Homo sapiens) [CBF 02-05, amino acids 2-5 of CBF]	inhibitory effect on vascular calcification	inhibitory effect on vascular calcification	
EEEE (listed as Homo sapiens) [CBF 05-08, amino acids 5-8 of CBF]	strongest inhibition	strongest inhibition	
LEGQE EEEDN (LEGQEEEEDN; listed as Homo sapiens) [CBF1, amino acids 1-10 of CBF]	significantly decreased the calcium content	significantly decreased the calcium content	calcified surface of the aortas, Von Kossa staining (Example 3 peptide comparison) (VDN rats): even more pronounced decrease; calcium content of the aortas (Example 3 peptide comparison) (VDN rats): even more pronounced decrease
CBF2: CBF fragment comprising the amino acids 11-19 (RDSSMKLSF; listed as Homo sapiens)	no significant effect	no significant effect	pulse pressure (Example 3 peptide comparison) (VDN rats): no effect; calcified surface of the aortas, Von Kossa staining (Example 3 peptide comparison) (VDN rats): no effect; calcium content of the aortas (Example 3 peptide comparison) (VDN rats): no effect
LEGQEEEEDNRDSSMKLSF [CBF, LEGQE EEEDN RDSSM KLSF]			EC50 (rat aortic rings): ~0.1 nM; threshold concentration for reducing calcification of rat aortic rings (rat aortic rings; aortic rings ex vivo, calcifying medium, 7 days, Ca content): ~0.01 nmol/L; reduction in the calcified area of aortic rings (von Kossa staining) (rat aortic rings; calcifying medium, CBF 100 nM): 40%; Ca2+ content in vessels of treated VDN rats compared to untreated animals (VDN rats; 31 μg kg^−1 per day via osmotic pump for 4 weeks): significantly reduced; pulse pressure (Example 3 peptide comparison) (VDN rats): significantly lower pulse pressure; calcified surface of the aortas, Von Kossa staining (Example 3 peptide comparison) (VDN rats): decreased calcified surface; calcium content of the aortas (Example 3 peptide comparison) (VDN rats): decrease in calcium content; reduction of pulse pressure (VDN rats; VDN rats, 31 μg kg^−1 per day for 4 weeks): 63%; decrease of calcified surface of aorta (von Kossa staining) (VDN rats; VDN rats, 31 μg kg^−1 per day via osmotic pump for 4 weeks): 70%; pulse pressure (VDN rats; VDN rats, chronic treatment 4 weeks, untreated VDN 81±6): 53±3; arterial pressure in VDN animals (VDN rats; chronic treatment in vivo, 4 weeks): significant decrease; threshold concentration for decreasing calcification in hAoSMCs ([1]; hAoSMCs, 7 days, Ca2+ content): ~1 amol L^−1
EEDN (listed as Homo sapiens) [CBF 07-10, amino acids 7-10 of CBF]	inhibitory effect on vascular calcification	inhibitory effect on vascular calcification	
LEGQE (listed as Homo sapiens) [CBF 01-05, amino acids 1-5 of CBF]	significant reduction of calcification	significant reduction of calcification	
QEEE (listed as Homo sapiens) [CBF 04-07, amino acids 4-7 of CBF]	strongest inhibition	strongest inhibition	
EEEDN (listed as Homo sapiens) [CBF 06-10, amino acids 6-10 of CBF]	significant reduction of calcification	significant reduction of calcification	
EEEDN RDSSM (EEEDNRDSSM; listed as Homo sapiens) [CBF fragment 06-15, amino acids 06-15 of CBF]	no significant effect	no significant effect	
GQEE (listed as Homo sapiens) [CBF 03-06, amino acids 3-6 of CBF]	inhibitory effect on vascular calcification	inhibitory effect on vascular calcification	
